# Laboratory results reported in US4882359A, “Azacycloalkane derivatives, absorption promoters containing the derivatives as the effective ingredient and external preparations containing the absorption promoters” (priority 1986, dated 1989).
# Tests used:
# [1] = Skin penetration of 5-FU from test solution, diffusion cell method; format: in vitro ADME, female hairless mice; conditions: for Cumulative amount of 5-FU permeated, 24 hrs later / Cumulative amount of 5-FU permeated, 48 hrs later: 3.0 wt.% test compound, 5-FU 1.8 wt.% in ethanol/water; for Activity (5-FU permeation): relative to Control (Vehicle) = 1.0
# [2] = Percutaneous absorption of pindolol in rats, serum concentration by HPLC; format: in vivo, Wistar-strain male rats; conditions: for Activity (serum concentration of pindolol): relative to Control (Vehicle) = 1.0 of the same series in Table 5
# Protocol: There were provided groups each consisting of four Wistar-strain male rats each weighing 200 to 250 g and having their dorsal skin hair shorn with an electric shaver.
# Each of the test solutions (pindolol-containing preparations) was applied to the shorn dorsal skin of test rats of one of the groups in an amount of 150 μl/2.5×2.5 cm^2 and then sealed up. Three hours after the application of the test solution, the blood of the test rats was collected and measured for serum concentration of pindolol by HPLC.
# For comparison, the above procedure was followed except that there was used a control solution which was the same as said test solution except for non-use of any compounds of this invention, and also followed using a comparative test solution which was the same as the test solution except for the substitution of a comparative compound for the compound of this invention.
# [3] = Skin penetration of pindolol from test solution, diffusion cell method; format: in vitro ADME, female hairless mice; conditions: for Activity (pindolol permeation): test solution, relative to Control (Vehicle) = 1.0
# [4] = in vivo; conditions: rat
# [5] = test system: glucose level in blood; test: Percutaneous absorption of glibenclamide: glucose level in blood of glucose-loaded rats; format: in vivo, Wistar-strain male rats; conditions: for Glucose level: glibenclamide 0.6 wt.% solution on dorsal skin, two hours after s.c. 20% glucose; for Inhibition rate: glucose level, relative to control group A and normal group
# Protocol: There were prepared control and test solutions having the following respective formulations (Table 8): […]
# In the tests, there were used groups each consisting of four Wistar-strain male rats which weighed about 200 to 250 g and abstained from food for 24 hours.
# Each of the control solutions A and B and the test solution indicated in the above Table 8 was applied to the dorsal skins, shorn by an electric clipper or shaver, of the rats of one group in an amount of 175 μl/2.5×2.5 cm^2 and then sealed up. Three hours after sealing up, 1.5 ml of 20% glucose was subcutaneously injected into said rats. Two hours after the glucose injection, the blood of the rats was collected and measured for glucose level in blood.
# For comparison, the above procedure was followed except that azone was substituted for the compound of Example 12 in the test solution.
# For further comparison, the blood of rats of one group which had been subjected only to 24 hours' abstinence from food (this group being hereinafter referred to as "normal group"), was measured for glucose level in blood. The rat groups to which the control solution A, the control solution B and the test solution were applied, are hereinafter referred to as "control group A", "control group B" and "test group", respectively.
# [6] = test system: glucose level in blood; test: Rectal absorption of insulin from suppository: glucose level in blood of rabbits; format: in vivo, male rabbits; conditions: for Changes of glucose level to the initial, 0.5 hr / Changes of glucose level to the initial, 1 hr / Changes of glucose level to the initial, 3 hrs: insulin suppository 0.3 g/kg rectal, 3% promoter where used
# Protocol: There were prepared the following suppositories for use in normal, control and test groups, respectively, each group consisting of five male rabbits weighing 2.5 to 3.5 kg each.
# The three suppositories were into the rectums of the rabbit groups in an amount of 0.3 g suppository/kg, respectively. Thereafter, blood was collected from the rabbits through their ear vein three times with the lapse of time to measure the three collected blood samples for glucose level in blood by a glucose oxidase method. […] The results are indicated in terms of a change in glucose level in blood with respect to the glucose level in blood prior to the administration of the suppositories.
# [7] = for Activity (phenol red permeation): relative to Control (Vehicle) = 1.0
# Protocol: There were investigated the effects of the compound of this invention on the percutneous penetration of phenol red which is difficult to be penetrated using the dorsal skin of female hairless mice (each 9 weeks old) by a diffusion cell method which comprised adding 0.5 ml of a sodium chloride injection containing 2 mM of phenol red to the donor side and measuring the amount of phenol red permeated into the receptor layer by high-pace optimal densitometric meter (559 nm).
# [8] = test system: dorsal skin of Japanese-native rabbits; test: Primary skin irritation test (Draize's method); format: in vivo; set-up: key to Average irritation score, 24 hours / Average irritation score, 48 hours / Average irritation score, 72 hours: Draize points: 0-2 mild, 2-6 moderate, 6-8 severe irritation; conditions: for Average irritation score, 24 hours: 3% solution in polyethylene glycol 300, 24 hours after removal of plaster; for Average irritation score, 48 hours: 3% solution in polyethylene glycol 300, 48 hours after removal of plaster; for Average irritation score, 72 hours: 3% solution in polyethylene glycol 300, 72 hours after removal of plaster; for Overall evaluation (skin irritation): graded from irritation scores at 24, 48 and 72 hours
# Protocol: As one of tests on the compounds of this invention for their topical toxicity, a primary skin irritation test was made on skins using rabbits as the subjects. More particularly, an adhesive plaster for use in batch tests, to which 100 μl of a 3% test solution of each of the compounds of Examples 12, 37, 57 and 73 of this invention in 100 ml of polyethylene glycol 300 had dropwise been applied, was applied to the hair-shorn dorsal skin of three Japanese-native rabbits weighing 2.5 to 3.0 kg each and then sealed up on the dorsal skin for 24 hours. The rabbits were evaluated three times for their dorsal skin irritative reaction 24, 48 and 72 hours after removal of the plaster by using a method in accordance with the Draize's method.
# The results are as shown in Table 18 in which the overall evaluation is represented by the following equation. [formula] and is graded into mild irritation (0-2 points), moderate irritation (2-6 points) and severe irritation (6-8 points).
compound,measurement,setting,value
"CCN1CCCC1=O [1-ethyl-2-pyrolidone, 1-ethyl-2-pyrrolidone]","Cumulative amount of 5-FU permeated, 24 hrs later",[1],96 ± 15 µM
same,"Cumulative amount of 5-FU permeated, 48 hrs later",[1],178 ± 9 µM
same,Activity (5-FU permeation),[1],0.9
same,Activity (serum concentration of pindolol),[2],2.8
same,"Cumulative amount of pindolol permeated, 24 hrs later",[3],1.3 ± 0.1 µM
same,"Cumulative amount of pindolol permeated, 48 hrs later",[3],2.7 ± 0.2 µM
same,Activity (pindolol permeation),[3],0.7
"CN1CCCC1=O [1-methyl-2-pyrolidone, 1-methyl-2-pyrrolidone, reference compound]","Cumulative amount of 5-FU permeated, 24 hrs later",[1],83 ± 15 µM
same,"Cumulative amount of 5-FU permeated, 48 hrs later",[1],192 ± 20 µM
same,Activity (5-FU permeation),[1],0.9
same,Activity (serum concentration of pindolol),[2],1.9
same,LD50 at 168 h,[4]; po,1000 to 2000 mg/kg
same,LD50 at 168 h,[4]; sc,2000 to 5000 mg/kg
"CCCCCCCCCCCCN1CCCCCC1=O [Azone, 1-n-dodecylazacycloheptane-2-one, reference compound]",LD50 at 168 h,[4]; po,> 5000 mg/kg
same,LD50 at 168 h,[4]; sc,> 5000 mg/kg
same,Glucose level,[5],133 ± 13 mg/dL
same,Inhibition rate,[5],25.0%
same,"Changes of glucose level to the initial, 0.5 hr",[6],-4 mg/dL
same,"Changes of glucose level to the initial, 1 hr",[6],+2 mg/dl
same,"Changes of glucose level to the initial, 3 hrs",[6],+1 mg/dl
same,"Cumulative amount of phenol red permeated, 24 hrs later","[7]; 3.0 wt.% test compound, phenol red, 24 hrs",8.4 ± 7.6 µM
same,"Cumulative amount of phenol red permeated, 48 hrs later","[7]; 3.0 wt.% test compound, phenol red, 48 hrs",14.5 ± 0.7 µM
same,Activity (phenol red permeation),[7],24.2
same,"Average irritation score, 24 hours",[8],3.8 ± 1.3
same,"Average irritation score, 48 hours",[8],3.8 ± 1.7
same,"Average irritation score, 72 hours",[8],5.5 ± 1.9
same,Overall evaluation (skin irritation),[8],Moderate (moderate irritation (2-6 points))
same,irritating actions on the skins (in words),"[8]; rabbit, in vivo",moderate grade irritating actions
"C[S+](C)[O-] [DMSO, dimethylsulfoxide, reference compound]",Serum concentration of pindolol,"[2]; rat, in vivo, 180 min",12.0 ± 4.2 ng/mL
same,Activity (serum concentration of pindolol),[2],1.0
"CCCCCCCCCSCCN1CCCC1=O [Example 1, 1-[2-(n-nonylthio)ethyl] azacyclopentane-2-one]",Activity (serum concentration of pindolol),[2],30.0
"CCCCCSCCCCCCN1CCCCCC1=O [Example 2, 1-[6-(n-pentylthio)hexyl] azacycloheptane-2-one]",Activity (serum concentration of pindolol),[2],12.7
"CCCCCCCCOCCCN1CCCCCC1=O [Example 4, 1-[3-(n-octyloxy)propyl] azacycloheptane-2-one]",Activity (serum concentration of pindolol),[2],31.5
CCCCCCCCCCSCCCN1CCCC1=O [Example 16],Activity (serum concentration of pindolol),[2],32.0
CCCCCCCSCCCCCN1CCCC1=O [Example 20],Activity (serum concentration of pindolol),[2],40.6
CCCCCCCSCCCN1CCCCCC1=O [Example 29],Activity (serum concentration of pindolol),[2],14.8
CCCCCCCCSCCCN1CCCCCC1=O [Example 30],Activity (serum concentration of pindolol),[2],12.7
CCCCCCCCCSCCCN1CCCCCC1=O [Example 31],Activity (serum concentration of pindolol),[2],27.5
CCCCCSCCCCN1CCCCCC1=O [Example 35],Activity (serum concentration of pindolol),[2],8.8
CCCCCCSCCCCN1CCCCCC1=O [Example 36],Activity (serum concentration of pindolol),[2],19.6
CCCCCCCSCCCCN1CCCCCC1=O [Example 37],Activity (serum concentration of pindolol),[2],16.2
same,LD50 at 168 h,[4]; po,> 5000 mg/kg
same,LD50 at 168 h,[4]; sc,> 5000 mg/kg
same,Activity (phenol red permeation),[7],54.2
same,"Average irritation score, 24 hours",[8],0.6 ± 2
same,"Average irritation score, 48 hours",[8],0.5 ± 0.5
same,"Average irritation score, 72 hours",[8],0.5 ± 0.5
same,Overall evaluation (skin irritation),[8],Mild (mild irritation (0-2 points))
CCCCCCCCSCCCCN1CCCCCC1=O [Example 38],Activity (serum concentration of pindolol),[2],12.0
CCCCCCCCCSCCCCN1CCCCCC1=O [Example 39],Activity (serum concentration of pindolol),[2],18.0
CCCCCCCSCCCCCN1CCCCCC1=O [Example 43],Activity (serum concentration of pindolol),[2],16.2
CCCCCCSCCCCCCN1CCCCCC1=O [Example 48],Activity (serum concentration of pindolol),[2],14.9
CCCCSCCCCCCCN1CCCCCC1=O [Example 49],Activity (serum concentration of pindolol),[2],23.2
CCCSCCCCCCCCN1CCCCCC1=O [Example 50],Activity (serum concentration of pindolol),[2],6.6
CCCCCCCCCCOCCN1CCCC1=O [Example 57],Activity (serum concentration of pindolol),[2],33.0
same,LD50 at 168 h,[4]; po,> 5000 mg/kg
same,LD50 at 168 h,[4]; sc,> 5000 mg/kg
same,Activity (phenol red permeation),[7],65.5
same,"Average irritation score, 24 hours",[8],0.0 ± 0.0
same,"Average irritation score, 48 hours",[8],0.3 ± 0.3
same,"Average irritation score, 72 hours",[8],0.3 ± 0.3
same,Overall evaluation (skin irritation),[8],Mild (mild irritation (0-2 points))
CCCCCCCOCCCCCN1CCCC1=O [Example 66],Activity (serum concentration of pindolol),[2],30.2
CCCCCOCCCCCCN1CCCC1=O [Example 67],Activity (serum concentration of pindolol),[2],22.8
CCCCCCCCCCOCCCN1CCCCCC1=O [Example 72],Activity (serum concentration of pindolol),[2],27.2
CCCCCCCOCCCCN1CCCCCC1=O [Example 73],Activity (serum concentration of pindolol),[2],34.1
same,LD50 at 168 h,[4]; po,> 5000 mg/kg
same,LD50 at 168 h,[4]; sc,> 5000 mg/kg
same,Activity (phenol red permeation),[7],56.3
same,"Average irritation score, 24 hours",[8],0.3 ± 0.3
same,"Average irritation score, 48 hours",[8],0.3 ± 0.3
same,"Average irritation score, 72 hours",[8],0.5 ± 0.5
same,Overall evaluation (skin irritation),[8],Mild (mild irritation (0-2 points))
CCCCCCCCOCCCCN1CCCCCC1=O [Example 74],Activity (serum concentration of pindolol),[2],28.9
CCCCCCOCCCCCN1CCCCCC1=O [Example 76],Activity (serum concentration of pindolol),[2],8.3
CCCCCCOCCCCCCN1CCCCCC1=O [Example 80],Activity (serum concentration of pindolol),[2],26.1
COc1ccc(Cl)cc1C(=O)NCCc1ccc(S(=O)(=O)NC(=O)NC2CCCCC2)cc1 [Glibenclamide],Glucose level,[5],157 ± 7 mg/dL
same,effects on hypoglycemic activity,"[5]; glibenclamide used alone, compared with control group A",not exhibit any effects on hypoglycemic activity
same,Inhibition rate,[5],-3.6%
"Insulin: Insulin (Bovine, International Unit); control group (only insulin used)",effects on glucose level in blood (in words),[6]; compared with the normal group,exhibited no effects on glucose level in blood
same,"Changes of glucose level to the initial, 0.5 hr",[6],-1 mg/dL
same,"Changes of glucose level to the initial, 1 hr",[6],+3 mg/dl
same,"Changes of glucose level to the initial, 3 hrs",[6],+1 mg/dl
"Pyrrolidone carboxylic acid [Pyrolidone carbonic acid, reference compound]",Activity (serum concentration of pindolol),[2],2.1
same,Activity (pindolol permeation),[3],0.5
